Results on 1 molecule are retold here after paper PMC3166964 (Biophysical chemistry, 2011).

This assay concerns the target T1, caspase-3(D9A,D28A) (Homo sapiens, UniProt P42574, D28A/D9A).
T1 sequence (P42574 1-175 D9A/D28A limits assumed): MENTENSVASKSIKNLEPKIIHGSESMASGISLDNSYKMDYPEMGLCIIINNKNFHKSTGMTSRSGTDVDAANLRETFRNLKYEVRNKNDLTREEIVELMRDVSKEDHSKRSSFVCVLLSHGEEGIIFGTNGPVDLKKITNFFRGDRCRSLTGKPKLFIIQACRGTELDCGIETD
T1 sequence (P42574 176-277 limits assumed): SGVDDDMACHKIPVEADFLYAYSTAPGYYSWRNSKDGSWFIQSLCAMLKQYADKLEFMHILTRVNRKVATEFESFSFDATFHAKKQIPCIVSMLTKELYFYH
Description: isothermal titration calorimetry. It is filed as binding. (In general: In ITC the heat of successive injections is recorded.)

As a reminder, the Kd is the equilibrium constant for the complex coming apart. `CCN(CC)S(=O)(=O)c1ccc(-c2ccc(S(=O)(=O)N(CC)CC)s2)s1` [compound 42, N2,N2-diethyl-5-{5-[(diethylamino)sulfonyl]-2-thienyl}thiophene-2-sulfonamide] came in with a Kd of about 4 µM.
